According to PubChem BioAssay (NCI):
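Test compounds were applied to cells in 96-well plates for 48 hours at 5 doses. TGI denotes the concentration required for complete inhibition of growth.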

Columns and labels:
Test in all cases: NCI tumour cell line growth inhibition, 48 h
[1] = test system: SNB-75 CNS
[2] = test system: SW-620 colon
[3] = test system: COLO 205 colon
[4] = test system: SF-539 CNS
[5] = test system: SF-295 CNS
[6] = test system: MALME-3M melanoma
[7] = test system: CAKI-1 renal
[8] = test system: UACC-257 melanoma
[9] = test system: EKVX NSCLC
[10] = test system: HT29 colon
[11] = test system: HL-60(TB) leukemia
[12] = test system: SR leukemia
[13] = test system: DU-145 prostate

Row | Compound | TGI [1] [µM] | TGI [2] [µM] | TGI [3] [µM] | TGI [4] [µM] | TGI [5] [µM] | TGI [6] [µM] | TGI [7] [µM] | TGI [8] [µM] | TGI [9] [µM] | TGI [10] [µM] | TGI [11] [µM] | TGI [12] [µM] | TGI [13] [µM]
1 | C/C=C\C(CC(=O)OC)CC(=O)N(CCC1CN(S(=O)(=O)C(F)(F)F)c2ccccc21)Cc1ccc(OC)cc1OC (configuration not stated) | > 100 | > 100 | > 100 | > 100 | > 100 | > 100 | > 100 | > 100 | > 100 |  |  |  | 
2 | COc1ccc2c(c1)[n+]([O-])c(/C(C)=N/NC(=O)c1ccccc1O)c(C)[n+]2[O-] |  | > 100 |  | > 100 | > 100 | > 100 | > 100 | > 100 | > 100 | > 100 | > 100 |  | 
3 | CCN(CC)Cc1cc(Nc2ccnc3ccc4nn(C)nc4c23)ccc1O | 26.1 | 28.2 | 19.1 | 26.5 | 29.1 | 31.3 | > 100 | 27.8 |  | 20.9 | > 100 | > 100 | 
4 | Cc1nc2c3c(ccc2[nH]c1=O)C(=O)c1ccccc1C3=O | 87 | > 100 | > 100 | > 100 | > 100 | > 100 | > 100 | > 100 | > 100 | > 100 | > 100 | > 100 | 
5 | CC(C)c1ccc(/C=C/c2cc(C(=O)NNC(=O)NC3CCCCC3)nc(=S)[nH]2)cc1 | > 100 | > 100 | > 100 | > 100 | > 100 | > 100 | > 100 | > 100 | > 100 | > 100 |  |  | 
6 | O=[N+]([O-])C=C1c2ccccc2-c2ccccc21 | 40.7 | 31.2 | 3.33 | 31.3 | 33.5 |  | 24.5 | 33.7 | 37.1 | 37.3 | 23.7 | 28.5 | 
7 | O=C(O)c1ccc([C@@H]2C(=O)N(O)[C@@H]3C=CC[C@@H]32)cc1 | > 100 | > 100 | > 100 | > 100 | > 100 | > 100 | > 100 | > 100 | > 100 | > 100 | > 100 |  | 
8 | CC(C)C(Sc1nc(-c2ccccc2)c(-c2ccccc2)[nH]1)c1n[nH]c(=S)n1-c1ccccc1 (configuration not stated) | > 100 | > 100 | 62.1 | 40.4 | 57.3 | 50.9 |  | 74.9 | 65.4 | 70.3 | 47.1 | 92.3 | 
9 | COC(=O)C(c1ccc(OC)cc1)N1C(=O)[C@@H](NC(=O)c2ccccc2)[C@H]1[C@@H](C)O (some centres not stated) | > 100 | > 100 | > 100 | > 100 | > 100 | > 100 |  | > 100 | > 100 | > 100 | > 100 | > 100 | 
10 | O=C(O)c1c2c(cc3c(=O)cc(-c4ccccc4)oc13)CCCC2 | > 100 | > 100 | > 100 | > 100 | > 100 | > 100 |  | > 100 | > 100 | > 100 |  |  | 
11 | Cc1ccc(-c2nnc3s/c(=C\c4ccc(N(C)C)cc4)c(=O)n23)cc1 | > 100 | > 100 | > 100 | > 100 | > 100 | > 100 | > 100 | 77.5 | > 100 |  | > 100 |  | 
12 | COc1ccccc1NC(=O)CC(=O)N1N=C(c2ccccc2)C(N=Nc2ccc(Cl)cc2)C1=O (configuration not stated) | 55 | > 100 | > 100 | > 100 | 70.3 |  | > 100 | > 100 | > 100 | > 100 | > 100 | > 100 | 
13 | COc1ccc(/C=C/C(=O)c2sc(-c3cccnc3)nc2C)cc1 | > 100 | > 100 | > 100 | 65 | > 100 | > 100 | > 100 | > 100 | > 100 | > 100 | 48.1 |  | 
14 | COc1cc(CNc2cnc3ccc(N)cc3n2)cc(OC)c1OC | > 100 | > 100 | > 100 | > 100 | > 100 | > 100 | > 100 | > 100 | > 100 | > 100 | > 100 |  | 
15 | CC(=O)NNc1nc(C)c(C(=O)/C=C/c2ccc(Cl)c(Cl)c2)s1 | > 100 | > 100 | > 100 | > 100 | > 100 | > 100 | > 100 | > 100 | > 100 | > 100 | > 100 |  | 
16 | NC(N)=NS(=O)(=O)c1ccc(NC(=O)c2cccc3c(N)c4ccccc4nc23)cc1 | > 100 | > 100 | > 100 | > 100 | > 100 | > 100 | > 100 | > 100 | > 100 |  |  |  | 
17 | COC(=O)[C@]12CSC[C@H]1C[C@H](c1cccc3ccccc13)N2 | > 100 | > 100 | > 100 | > 100 | > 100 |  | > 100 | > 100 | > 100 |  |  | > 100 | > 100
18 | COc1ccc(/C=C2\CCC(CCN3CCOCC3)C2=O)cc1 (configuration not stated) | > 100 | > 100 |  | > 100 | > 100 | > 100 | > 100 | > 100 | > 100 | > 100 | > 100 | > 100 | 
19 | COC(=O)C(=O)C(/C(=N/N)C(=O)Nc1ccccc1C(N)=O)c1nc2ccc([N+](=O)[O-])cc2[nH]c1=O (configuration not stated) |  | > 100 | > 100 | > 100 | > 100 | > 100 | > 100 | > 100 | > 100 | > 100 | > 100 | > 100 | 
20 | CN(C)C(=NC#N)N(Cc1ccccc1)Cc1ccccc1 | > 100 | 33.7 | > 100 | > 100 | > 100 | > 100 | > 100 | > 100 | > 100 | > 100 | > 100 |  | 
21 | OCC1CCCC1O (configuration not stated) | > 100 | > 100 | > 100 | > 100 | > 100 | > 100 | > 100 | > 100 |  | > 100 | > 100 | > 100 | > 100
22 | O=C(O)CCN(CCCN(CCC(=O)O)CCC(=O)O)CCC(=O)O | > 100 | > 100 | > 100 | > 100 | > 100 | > 100 | > 100 |  | > 100 | > 100 | > 100 |  | 
23 | CCCCCCCCCCOC(=O)NCCC | > 100 | > 100 | > 100 | > 100 | > 100 | 54.8 | > 100 | 92.8 | 67.7 | 49.7 | 32.7 |  | 
24 | CCOC(=O)C1SC(=Nc2ccc(Cl)cc2Cl)N=C1C (configuration not stated) | 82 | > 100 | > 100 | > 100 | > 100 | > 100 | > 100 | > 100 | > 100 | > 100 | > 100 |  | 
25 | CN(/N=C\c1ccnc2ccccc12)c1ccccc1 | 94.9 | 51.4 | 39.8 | 71.6 | 71.5 | 52.8 | 91.7 | 42.6 | 91.2 | 35.9 | 39.2 |  | 
26 | O=C1C(c2ccccc2)=C(c2ccccc2)C(c2ccc(Sc3ccc(C4=C(c5ccccc5)C(=O)C(c5ccccc5)=C4c4ccccc4)cc3)cc2)=C1c1ccccc1 | 76.5 | > 100 | > 100 | > 100 | > 100 | > 100 | > 100 | > 100 | > 100 | > 100 | > 100 | > 100 | 
27 | O=C(Cc1nc2ccc([N+](=O)[O-])cc2[nH]c1=O)C(=O)Nc1ccccc1[N+](=O)[O-] | > 100 | > 100 | > 100 | > 100 | > 100 | > 100 | > 100 | > 100 | > 100 | > 100 | > 100 |  | 
28 | C/C(=N/O)c1sc(-c2nc(C)c(/C(C)=N\O)s2)nc1C | > 100 | > 100 | > 100 | > 100 | > 100 | > 100 | > 100 | > 100 | > 100 | > 100 | > 100 | > 100 | 
29 | c1ccc2c(CNCCCCCCCCNCc3cccc4ccccc34)cccc2c1 | 3.35 | 3.29 | 3.43 | 3.04 | 3.32 | 3.41 | 5.01 | 3.29 | 18.8 | 3.35 | 4.64 |  | 
30 | CC(C)(C)[Si](C)(C)OCC1OC(n2ccc(=O)[nH]c2=O)C(O[Si](C)(C)C(C)(C)C)[C@]12O[C@@H]2CO (some centres not stated) | 40.4 | 58.7 | 42.9 | 47.7 | 23.7 |  | 38.7 | 39.7 | 36.6 | 23.8 |  | > 100 | 38.1
